Source: patent US20040023994A1 (priority 2002, published 2004)
Where two headings read alike, the source gives them in different places. Marks after values point to notes of the source that are not given here.

Experiments:
HS 578T = details: Breast, NCI database, cited from earlier work; for CC50: read-out: LC50 (the source's name)
MOLT-4 [1] = details: MOLT-4, Leukemia, NCI database, cited from earlier work; for CC50: read-out: LC50 (the source's name)
MDA-MB-435 = details: MDA-MB-435, Breast, NCI database, cited from earlier work; for CC50: read-out: LC50 (the source's name)
OVCAR-5 [2] = details: OVCAR-5, Ovarian, NCI database, cited from earlier work; for CC50: read-out: LC50 (the source's name)
[3] = system: Heterozygous nude CD-1 male mice; experiment: Hematology analyses in treated mice; details: i.p.; for change in peripheral white blood cell counts: trans-AVTG: only 21.25 μmol/kg two cycles, 6-TG: 8.5 or 21.25 μmol/kg one cycle or 21.25 μmol/kg two cycles
Experimental: Heterozygous nude CD-1 male mice were treated (i.p.) with multiple doses consisting of either one dose daily for three consecutive days (cis-AVTP or trans-AVTG, 21.25 μmol/kg, 6-TG, 8.5 or 21.25 μmol/kg, or vehicle; one cycle), or one dose daily for three consecutive days, repeated again five days later (cis-AVTP, trans-AVTG or 6-TG, 8.5 or 21.25 μmol/kg, or vehicle; two cycles).
The mice were sacrificed 24 h after the last treatment. Urine was collected for 24 h before initiation of treatment and every 24 h thereafter until the mice were sacrificed. Blood was collected by cardiac puncture and blood cells counted. Sections of liver, kidney, intestines, stomach and sternum were stained with hematoxylin and eosin and subjected to pathological analysis. Bone marrow smears were prepared for assessment of bone marrow cellularity. Liver function was evaluated by measuring alanine aminotransferase-(ALT) and aspartate aminotransferase (AST) activities in plasma. Kidney function was evaluated by measuring blood urea nitrogen in plasma and γ-glutamyltransferase activity and glucose levels in urine.

A549/ATCC = details: Non-Small Cell Lung, NCI database, cited from earlier work; for CC50: read-out: LC50 (the source's name)
SNB-19 = details: SNB-19, CNS, NCI database, cited from earlier work; for CC50: read-out: LC50 (the source's name)
MDA-MB-231/ATCC = details: Breast, NCI database, cited from earlier work; for CC50: read-out: LC50 (the source's name)
OVCAR-4 = details: OVCAR-4, Ovarian, NCI database, cited from earlier work; for CC50: read-out: LC50 (the source's name)
MDA-N = details: Breast, NCI database, cited from earlier work; for CC50: read-out: LC50 (the source's name)
COLO 205 = details: COLO 205, Colon, NCI database, cited from earlier work; for CC50: read-out: LC50 (the source's name)
SK-MEL-28 = details: SK-MEL-28, Melanoma, NCI database, cited from earlier work; for CC50: read-out: LC50 (the source's name)
U251 = details: U251, CNS, NCI database, cited from earlier work; for CC50: read-out: LC50 (the source's name)
UACC-257 = details: for CC50: read-out: LC50
OVCAR-5 [4] = details: for CC50: read-out: LC50
HOP-62 = details: for CC50: read-out: LC50
MOLT-4 [5] = details: for CC50: read-out: LC50
SK-MEL-2 = details: for CC50: read-out: LC50
OVCAR-3 = details: for CC50: read-out: LC50
HCT-15 = details: for CC50: read-out: LC50
[6] = HOP-62, Non-Small Cell Lung, 48 h

## Nc1nc2nc[nH]c2c(=S)[nH]1 [6-TG, 6-thioguanine]
HS 578T
  CC50: > 100 µM
  GI50: 7.26 µM
  TGI: >100 µM
MOLT-4 [1]
  GI50: 0.27 µM
  TGI: 15.4 µM
  CC50: > 100 µM
MDA-MB-435
  GI50: 0.84 µM
  TGI: 31.9 µM
  CC50: > 100 µM
OVCAR-5 [2]
  GI50: 0.65 µM
  TGI: 47.5 µM
  CC50: > 100 µM
[3]; 8.5 μmol/kg, one cycle
  PLT: 1172 ± 161 × 10^3 cells/μl
  RBC: 8.3 ± 0.4 × 10^6 cells/μl
  WBC: 4.8 ± 1.2 × 10^3 cells/μl
[3]; 8.5 μmol/kg, two cycles
  PLT: 906 ± 140 × 10^3 cells/μl
  RBC: 8.3 ± 0.2 × 10^6 cells/μl
  WBC: 5.3 ± 1.6 × 10^3 cells/μl
[3]; 21.25 μmol/kg, one cycle
  PLT: 752 ± 416^b × 10^3 cells/μl
  RBC: 8.4 ± 0.6^a × 10^6 cells/μl
  WBC: 3.8 ± 1.1^b,* × 10^3 cells/μl
[3]; 21.25 μmol/kg, two cycles
  PLT: 1351 ± 126 × 10^3 cells/μl
  RBC: 8.0 ± 0.3 × 10^6 cells/μl
  WBC: 3.6 ± 0.1 × 10^3 cells/μl
[3]
  change in peripheral white blood cell counts: reduced white blood cell counts
A549/ATCC
  CC50: > 100 µM
  GI50: 3.48 µM
  TGI: >100 µM
SNB-19
  GI50: 78.5 µM
  TGI: >100 µM
  CC50: > 100 µM
MDA-MB-231/ATCC
  CC50: > 100 µM
  GI50: 1.94 µM
  TGI: >100 µM
OVCAR-4
  GI50: 1.49 µM
  TGI: 99.5 µM
  CC50: > 100 µM
MDA-N
  CC50: > 100 µM
  GI50: 1.01 µM
  TGI: 26.4 µM
COLO 205
  GI50: 1.67 µM
  TGI: 8.75 µM
  CC50: 34.5 µM
SK-MEL-28
  GI50: 8.91 µM
  TGI: >100 µM
  CC50: > 100 µM
U251
  GI50: 4.89 µM
  TGI: >100 µM
  CC50: > 100 µM

## CC(=O)C=CSc1ncnc2nc[nH]c12 [cis-AVTP, 6-(2-acetylvinylthio) purine]
UACC-257; Homo sapiens, UACC-257, 48 h
  GI50: 2.4 µM
  CC50: > 100 µM
UACC-257; UACC-257, Melanoma, 48 h
  TGI: 27.4 µM
HL-60(TB); Leukemia, 48 h
  TGI: 4.95 µM
OVCAR-5 [4]; Homo sapiens, OVCAR-5, 48 h
  GI50: 1.31 µM
  CC50: 6.57 µM
OVCAR-5 [4]; OVCAR-5, Ovarian, 48 h
  TGI: 2.94 µM
HOP-62; [6]
  TGI: 21.2 µM
HOP-62; Homo sapiens, HOP-62, 48 h
  GI50: 0.4 µM
  CC50: 88.9 µM
MOLT-4 [5]; Homo sapiens, MOLT-4, 48 h
  GI50: 0.36 µM
  CC50: > 100 µM
MOLT-4 [5]; MOLT-4, Leukemia, 48 h
  TGI: >100 µM
SK-MEL-2; Homo sapiens, SK-MEL-2, 48 h
  GI50: 0.48 µM
  CC50: 40.7 µM
SK-MEL-2; SK-MEL-2, Melanoma, 48 h
  TGI: 8.22 µM
LOX IMVI; Homo sapiens, 48 h
  GI50: 0.03 µM
LOX IMVI; Homo sapiens, 48 h, read-out: LC50
  CC50: > 100 µM
LOX IMVI; Melanoma, 48 h
  TGI: 2.23 µM
[3]; 8.5 μmol/kg, two cycles
  PLT: 1160 ± 349 × 10^3 cells/μl
  RBC: 9.5 ± 0.3 × 10^6 cells/μl
  WBC: 5.9 ± 2.3 × 10^3 cells/μl
[3]; 21.25 μmol/kg, one cycle
  PLT: 1644 ± 253^a × 10^3 cells/μl
  RBC: 8.9 ± 0.6^a × 10^6 cells/μl
  WBC: 8.0 ± 1.2^a × 10^3 cells/μl
[3]; 21.25 μmol/kg, two cycles
  PLT: 1257 ± 335 × 10^3 cells/μl
  RBC: 9.0 ± 0.5 × 10^6 cells/μl
  WBC: 8.4 ± 1.9 × 10^3 cells/μl
[3]
  change in peripheral white blood cell counts: No change
OVCAR-3; Homo sapiens, OVCAR-3, 48 h
  GI50: 0.03 µM
  CC50: 8.67 µM
OVCAR-3; OVCAR-3, Ovarian, 48 h
  TGI: 0.47 µM
HCT-15; HCT-15, Colon, 48 h
  TGI: 5.98 µM
HCT-15; Homo sapiens, HCT-15, 48 h
  GI50: 1.88 µM
  CC50: 41.3 µM

## Sc1ncnc2nc[nH]c12 [6-MP, 6-mercaptopurine]
HS 578T
  CC50: > 100 µM
  GI50: 15.7 µM
  TGI: >100 µM
MOLT-4 [1]
  GI50: 1.51 µM
  TGI: >100 µM
  CC50: > 100 µM
MDA-MB-435
  GI50: 1.4 µM
  TGI: >100 µM
  CC50: > 100 µM
OVCAR-5 [2]
  GI50: 7.85 µM
  TGI: >100 µM
  CC50: > 100 µM
A549/ATCC
  CC50: > 100 µM
  GI50: 27.7 µM
  TGI: >100 µM
SNB-19
  GI50: > 100 µM
  TGI: >100 µM
  CC50: > 100 µM
MDA-MB-231/ATCC
  CC50: > 100 µM
  GI50: 16.4 µM
  TGI: >100 µM
OVCAR-4
  GI50: 7.11 µM
  TGI: >100 µM
  CC50: > 100 µM
MDA-N
  CC50: > 100 µM
  GI50: 1.5 µM
  TGI: >100 µM
COLO 205
  GI50: 4.68 µM
  TGI: >100 µM
  CC50: > 100 µM
SK-MEL-28
  GI50: > 100 µM
  TGI: >100 µM
  CC50: > 100 µM
U251
  GI50: 11.8 µM
  TGI: >100 µM
  CC50: > 100 µM

## CC(=O)C=CSc1nc(N)nc2nc[nH]c12 [trans-AVTG, 6-(2-acetylvinylthio) guanine]
UACC-257; UACC-257, Melanoma, 48 h
  GI50: 11.6 µM
  TGI: >100 µM
  CC50: > 100 µM
HL-60(TB); Leukemia, 48 h
  GI50: 3.77 µM
  TGI: 16.6 µM
HL-60(TB); read-out: LC50, Leukemia, 48 h
  CC50: > 100 µM
OVCAR-5 [4]; OVCAR-5, Ovarian, 48 h
  GI50: 0.54 µM
  TGI: 6.04 µM
  CC50: 57.7 µM
HOP-62; [6]
  GI50: 1.62 µM
  TGI: >100 µM
  CC50: > 100 µM
MOLT-4 [5]; MOLT-4, Leukemia, 48 h
  GI50: 0.7 µM
  TGI: >100 µM
  CC50: > 100 µM
SK-MEL-2; SK-MEL-2, Melanoma, 48 h
  GI50: 1.02 µM
  TGI: 15.5 µM
  CC50: 98.7 µM
LOX IMVI; Melanoma, 48 h
  GI50: 0.2 µM
  TGI: 2.39 µM
LOX IMVI; read-out: LC50, Melanoma, 48 h
  CC50: 82.5 µM
OVCAR-3; OVCAR-3, Ovarian, 48 h
  GI50: 0.24 µM
  TGI: 0.63 µM
  CC50: 12.1 µM
HCT-15; HCT-15, Colon, 48 h
  GI50: 1.73 µM
  TGI: 19.4 µM
  CC50: > 100 µM
